These results are taken from US12522602B2, “Derivatives having 2,3-dihydro-1H-indene or 2,3-dihydrobenzofuran moiety or pharmaceutically acceptable salt thereof and pharmaceutical compositions comprising the same” (YUHAN CORPORATION, priority 2019, dated 2026).

Assay [1] relates to GM1 production in Jurkat cells. As to the kind of experiment: cells. The format is cell-based. As to conditions: read-out: IC50.
Assay [2] addresses glucosylceramide synthase (GCS) (Homo sapiens (Human), UniProt Q16739). The assay is described as follows: Inhibitory activity against GCS (A549 cell lysate enzyme reaction, HPLC fluorescence). Particulars: NBD C6-ceramide and UDP-glucose, 37° C. for 90 minutes. The class given is biochemical. The procedure: Ibiglustat, known as a GCS inhibitor, was used as a control.
After the cells attached to the culture dish were washed with phosphate buffered saline (PBS), the cells were scraped off with a cell scraper and then centrifuged (4000 rpm, 3 min, 4° C.) to collect the cells in a 50 ml tube. The cell pellets were suspended in a lysis buffer (50 mM HEPES, pH 7.3, containing 1× the protease/phosphatase inhibitor cocktail), lysed by sonication, and then the lysate was centrifuged (13000 rpm, 10 min, 4° C.). The obtained supernatant was used for the quantitative analysis of proteins. The amount of proteins was measured using the BCA protein assay kit, using bovine serum albumin as a standard.
Enzymatic reactions were initiated by sequentially adding the following reaction materials to a 96 deep-well plate. Thereafter, the enzymatic reactions were performed at 37° C. for 90 minutes.
The enzymatic reactions were stopped by adding 100 μl of chloroform/methanol (2:1, v/v). […] The lower layer (50 μl) was transferred to a new 96 deep-well plate and dried with a reduced concentrator.

As for “(S)-quinuclidin-3-yl (2,2-dimethyl-(2,4,5-trifluorophenyl)-2,3-dihydro-1H-inden-1-yl)carbamate [Example 68]”, the IC50 (in general, the point on the concentration scale where inhibition reaches its midpoint) in assay [1] was found to be 91.8 nM; in assay [2], 15.2 nM.
